Patent US9958450B2, “L-glucose derivatives having fluorescent chromophore” (HIROSAKI UNIVERSITY, priority 2008, dated 2018)

Tests used:
[1] = tested on: acutely isolated substantia nigra pars reticulata neurons; assay: Application of 2-NBDG or 2-NBDLG to acutely isolated neurons (normal fluorescence microscope); type: cell-based, mouse; details: 200 μM solution administered for 1 minute, 36 to 37° C., fluorescence images at 10 and 30 minutes after initiation of washing
Experimental: C57BL/6J mice at the age of 13 to 15 days after birth (juvenile period) or at the age of 33 to 45 days after birth (maturation period) were deeply anesthetized with urethane (i.p. 1.6 g/kg) and decapitated according to a common procedure. Thereafter, the brain was taken out from each mouse and cooled by immersion in a cold Ringer's solution^note 1) (at 0° C.) for 1 to 2 minutes, and then, coronal brain slices with a thickness of 400 μm were prepared using a microslicer (ZERO 1, Dosaka EM Co., Ltd.). […]
In a homemade perfusion chamber (Non-patent document 2) mounted on a heating-type xy stage (Zeiss Tempcontrol 37-2) of an inverted fluorescence microscope from Zeiss Axiovert 135 (100 W, a xenon light source), a 35-mm glass bottom culture dish^note 4) was placed, and a glass coverslip (neurons were placed thereon according to the method described in (A)) placed in the dish was perfused with a HEPES solution for recording at a rate of 1.3 mL/min. […]
In the fluorescence detection, a 450-490 nm standard bandpass excitation filter manufactured by Zeiss, Inc., a 510 nm dichroic mirror, and a 515-565 nm emission filter were used without using an ND filter, and as the objective lens, a Zeiss Plan Neofluar ×20 lens (NA 0.50) was used. […]

Escherichia coli K12 = assay: Incorporation of 2-NBDG or 2-NBDLG into Escherichia coli (evaluation for the state of Escherichia coli); type: cell-based; details: for difference in fluorescence detection between 2-NBDG and 2-NBDLG: dead cells prepared by treating live cells with 70% ethanol at room temperature for 10 minutes; for fluorescence due to the incorporation into the cells: live cells, 50 μM, 37° C. for 10 minutes
Experimental: Escherichia coli K12 was cultured with shaking overnight at 37° C. A 1 mL portion of the culture was centrifuged to collect cells, and the cells were suspended in 1 mL of phosphate buffered saline (PBS, a mixed solution of 0.01 M phosphate buffer and 0.137 M NaCl at pH 7.4). A 90 μL portion of the suspension was taken out, and 10 μL of the 2-NBDG solution or the 2-NBDLG solution was added thereto to give a final concentration of 50 μM, and then, an incorporation reaction was allowed to proceed at 37° C. for 10 minutes. After the reaction, the cells were collected by centrifugation and resuspended in PBS, and the cells were microscopically observed (objective lens ×10) and recorded using a CCD camera for microscopic observation.

[2] = Fluorescence spectrum (maximum fluorescence wavelength); type: physicochemical
From the text: When the case where a mixed liquid of 2-NBDG and 2-TRLG was used as the mixed liquid of a D-glucose derivative that has a fluorescent chromophore in the molecule and is specifically incorporated into cells and an L-glucose derivative that has, in the molecule, a fluorescent chromophore that emits fluorescence at a wavelength different from that of the fluorescence emitted by the D-glucose derivative that has a fluorescent chromophore in the molecule and is specifically incorporated into cells is cited as an example, the maximum fluorescence wavelength of the former is from 540 nm to 550 nm, and the maximum fluorescence wavelength of the latter is from 600 nm to 610 nm. Therefore, when the fluorescence at a wavelength in the vicinity of each of the maximum fluorescence wavelengths is detected for the solution obtained by mixing both glucose derivatives, the green fluorescence emitted by 2-NBDG and the red fluorescence emitted by 2-TRLG can be detected, respectively, and as a result of combining the both fluorescence spectra detected, yellow fluorescence can be detected. After administration of the mixed liquid of 2-NBDG and 2-TRLG to cells, when 2-NBDG is specifically incorporated into the cells, green fluorescence is detected from the inside of the cells. […] Therefore, by detecting the green fluorescence emitted by 2-NBDG after the mixed liquid of 2-NBDG and 2-TRLG is administered to cells, the specific incorporation of D-glucose into cells relative to L-glucose can be accurately evaluated in real time.
Incidentally, the validity of this evaluation result is supported by the result that when the mixed solution of 20 μM 2-TRLG and 100 μM 2-NBDG is used, green fluorescence emitted by 2-NBDG can be detected by detecting fluorescence at around 540 nm, and red fluorescence emitted by 2-TRLG can be detected by detecting fluorescence at around 610 nm (in the case of pH 7.4, the maximum fluorescence wavelength of 2-NBDG is 540 nm, and the maximum fluorescence wavelength of 2-TRLG is 610 nm, see FIG. 4). […]

acutely isolated neurons = assay: Application of mixed solution of 2-NBDG and 2-TRLG to acutely isolated neurons (real-time laser scanning confocal fluorescence microscope); type: cell-based, mouse; details: mixed solution of 20 μM 2-TRLG and 100 μM 2-NBDG administered for 1 minute, 24° C., image at 1 minute after stopping the administration
Experimental: The preparation of acutely isolated neurons was performed in the same manner as in Example 1.
Then, 10 μL of this 2 mM solution was dissolved in 1 mL of a glucose-free HEPES buffer solution^note 6) containing 100 μM 2-NBDG so as to dilute the 2 mM solution to 100-fold, whereby a mixed solution of 20 μM 2-TRLG and 100 μM 2-NBDG was obtained.
3 mL of a HEPES solution^note 2) was added to a 35-mm glass bottom culture dish^note 4) having a glass bottom to which neurons were adhered, and further 3 mL of mineral oil (M8410, Sigma CO., Ltd.) was laminated thereon. […]
A total of three detectors (channels): a photomultiplier detector for light in a green wavelength range (PMT1) and a photomultiplier detector for light in a red wavelength range (PMT2), and also a detector for transmitted light (PMTTrans) were used simultaneously, and 512×512 pixel images were captured. The detection sensitivity was set as follows: PMT1: 868 V, PMT2: 868 V, and PMTtrans: 245 V. Incidentally, the optimal values of the detection wavelength ranges of green fluorescence (500-580 nm) and red fluorescence (580-740 nm) were selected not on the basis of an emission filter system, but on the basis of a system using a prism spectroscope and a slit in combination (standard of TCS SP5, Leica, Inc.). […]

[3] = 2-NBDG, 2-TRLG and 2-NMALG mixed at 1:1:25 (molar ratio), excited by laser light at 405 nm (FIG. 6)

## O=[N+]([O-])c1ccc(NC2C(O)OC(CO)[C@H](O)C2O)c2nonc12 (stereo partly drawn) [2-NBDLG, 2-[N-(7-nitrobenz-2-oxa-1,3-diazol-4-yl)amino]-2-deoxy-L-glucose]
[1]
  green fluorescence from the cell (incorporation into the cell): almost no green fluorescence from the cell was observed
Escherichia coli K12
  difference in fluorescence detection between 2-NBDG and 2-NBDLG: a difference in the result of the fluorescence detection for 2-NBDG and 2-NBDLG was not observed
  fluorescence due to the incorporation into the cells: could not be detected

## CNc1ccccc1C(=O)N[C@H](C=O)[C@H](O)[C@@H](O)[C@@H](O)CO [2-NMALG, 2-[N-2-(N′-methylamino)benzoylamino]-2-deoxy-L-glucose]
[2]; [3]
  maximum fluorescence wavelength: around 450 nm

## O=[N+]([O-])c1ccc(NC2C(O)OC(CO)[C@@H](O)C2O)c2nonc12 (stereo partly drawn) [2-NBDG, 2-[N-(7-nitrobenz-2-oxa-1,3-diazol-4-yl)amino]-2-deoxy-D-glucose]
[1]
  green fluorescence from the cell (incorporation into the cell): green fluorescence from the cell was observed
Acutely isolated neurons
  fluorescence based on incorporation into the cell: only green fluorescence derived from 2-NBDG was observed
Escherichia coli K12
  difference in fluorescence detection between 2-NBDG and 2-NBDLG: a difference in the result of the fluorescence detection for 2-NBDG and 2-NBDLG was not observed
  fluorescence due to the incorporation into the cells: significant fluorescence due to the incorporation of 2-NBDG into the cells could be detected
[2]; [3]
  maximum fluorescence wavelength: around 540 nm
[2]; pH 7.4, mixed solution of 20 μM 2-TRLG and 100 μM 2-NBDG (FIG. 4)
  maximum fluorescence wavelength: 540 nm
